In PMC11324870, “Branched-chain amino acid transaminase 1 confers EGFR-TKI resistance through epigenetic glycolytic activation” (Signal Transduction and Targeted Therapy, 2024):

Target: T1, BCAT1 (branched-chain amino acid transaminase 1) (Homo sapiens, UniProt P54687)
T1 construct: recombinant human BCAT1 Protein (Sino Biological, #ME16FE2265)
T1 sequence (P54687 1-386): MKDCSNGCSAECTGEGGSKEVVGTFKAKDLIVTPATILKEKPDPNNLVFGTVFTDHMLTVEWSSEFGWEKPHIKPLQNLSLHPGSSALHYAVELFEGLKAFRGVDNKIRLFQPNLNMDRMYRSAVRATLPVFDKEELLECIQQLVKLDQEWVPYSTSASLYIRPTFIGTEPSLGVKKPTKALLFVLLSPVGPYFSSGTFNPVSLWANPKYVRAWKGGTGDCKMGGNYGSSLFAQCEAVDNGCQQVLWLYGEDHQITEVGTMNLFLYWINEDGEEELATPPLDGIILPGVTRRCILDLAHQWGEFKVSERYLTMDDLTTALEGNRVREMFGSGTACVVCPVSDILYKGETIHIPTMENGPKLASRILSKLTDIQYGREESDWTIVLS
Test: coupled fluorescence (resazurin) enzyme activity assay with purified recombinant BCAT1; also CETSA in […] cells
Format: biochemical

Work on NCC1(CC(=O)O)CC2CCC1C2 (racemic) [WQQ-345] yielded an IC50 of 10.8 mM.
